Experimental data from the NIST ThermoML archive (doi:10.1021/je700260f).
Where “and” joins values, the source holds several entries; their conditions need not be identical. Equal entries are not always repeated.

Details: Liquid, Vibrating tube method

FC(C(F)(F)F)C(F)(F)F [1,1,1,2,3,3,3-heptafluoropropane]
Details | mass density
283.14 K, 31470 kPa | 1570.9 kg/m3
283.14 K, 31923 kPa | 1572.2 kg/m3
283.14 K, 31954 kPa | 1572.2 kg/m3
283.14 K, 31990 kPa | 1572.3 kg/m3
283.14 K, 32053 kPa | 1572.5 kg/m3
283.14 K, 32196 kPa | 1572.9 kg/m3
283.14 K, 32239 kPa | 1573 kg/m3
283.14 K, 32276 kPa | 1573 kg/m3
283.14 K, 32317 kPa | 1573.1 kg/m3
283.14 K, 32360 kPa | 1573.2 kg/m3
283.14 K, 32439 kPa | 1573.5 kg/m3
283.14 K, 32476 kPa | 1573.6 kg/m3
283.14 K, 32513 kPa | 1573.7 kg/m3
283.14 K, 32546 kPa | 1573.8 kg/m3
283.14 K, 32585 kPa | 1573.8 kg/m3
283.14 K, 32618 kPa | 1574 kg/m3
283.14 K, 32651 kPa | 1574 kg/m3
283.14 K, 32687 kPa | 1574.2 kg/m3
283.14 K, 32724 kPa | 1574.4 kg/m3
283.14 K, 32761 kPa | 1574.4 kg/m3
283.14 K, 32793 kPa | 1574.4 kg/m3
283.14 K, 32841 kPa | 1574.7 kg/m3
283.14 K, 32986 kPa | 1574.9 kg/m3
283.14 K, 33019 kPa | 1575.2 kg/m3
283.14 K, 33051 kPa | 1575.2 kg/m3
283.14 K, 33098 kPa | 1575.1 kg/m3
283.14 K, 33128 kPa | 1575.4 kg/m3
283.14 K, 33158 kPa | 1575.5 kg/m3
283.14 K, 33205 kPa | 1575.6 kg/m3
283.14 K, 33237 kPa | 1575.7 kg/m3
283.14 K, 33312 kPa | 1575.9 kg/m3
283.15 K, 461 kPa | 1449.6 kg/m3 and 1449.7 kg/m3 and 1449.5 kg/m3
283.15 K, 462 kPa | 1449.6 kg/m3 and 1449.5 kg/m3 and 1449.7 kg/m3
283.15 K, 463 kPa | 1449.6 kg/m3
283.15 K, 465 kPa | 1449.6 kg/m3
283.15 K, 485 kPa | 1449.7 kg/m3
283.15 K, 513 kPa | 1449.9 kg/m3
283.15 K, 538 kPa | 1450.1 kg/m3
283.15 K, 571 kPa | 1450.2 kg/m3
283.15 K, 601 kPa | 1450.5 kg/m3
283.15 K, 635 kPa | 1450.8 kg/m3
283.15 K, 666 kPa | 1450.9 kg/m3
283.15 K, 696 kPa | 1451.1 kg/m3
283.15 K, 723 kPa | 1451.2 kg/m3
283.15 K, 745 kPa | 1451.3 kg/m3
283.15 K, 785 kPa | 1451.6 kg/m3
283.15 K, 825 kPa | 1451.8 kg/m3
283.15 K, 870 kPa | 1452 kg/m3
283.15 K, 902 kPa | 1452.3 kg/m3
283.15 K, 2647 kPa | 1462.4 kg/m3
283.15 K, 2695 kPa | 1462.6 kg/m3
283.15 K, 2733 kPa | 1462.7 kg/m3
283.15 K, 2772 kPa | 1462.9 kg/m3
283.15 K, 2817 kPa | 1463.3 kg/m3
283.15 K, 2855 kPa | 1463.4 kg/m3
283.15 K, 2910 kPa | 1463.7 kg/m3
283.15 K, 2943 kPa | 1464 kg/m3
283.15 K, 2982 kPa | 1464.2 kg/m3
283.15 K, 3012 kPa | 1464.3 kg/m3
283.15 K, 3043 kPa | 1464.5 kg/m3
283.15 K, 3065 kPa | 1464.6 kg/m3
283.15 K, 3097 kPa | 1464.7 kg/m3
283.15 K, 3117 kPa | 1464.9 kg/m3
283.15 K, 3653 kPa | 1467.8 kg/m3
283.15 K, 3681 kPa | 1467.9 kg/m3
283.15 K, 3713 kPa | 1468.1 kg/m3
283.15 K, 3737 kPa | 1468.2 kg/m3
283.15 K, 3764 kPa | 1468.5 kg/m3
283.15 K, 3789 kPa | 1468.4 kg/m3
283.15 K, 3818 kPa | 1468.6 kg/m3
283.15 K, 3851 kPa | 1468.8 kg/m3
283.15 K, 3880 kPa | 1469 kg/m3
283.15 K, 3906 kPa | 1469.1 kg/m3
283.15 K, 3935 kPa | 1469.3 kg/m3
283.15 K, 3961 kPa | 1469.4 kg/m3
283.15 K, 4806 kPa | 1473.8 kg/m3
283.15 K, 4895 kPa | 1474.2 kg/m3
283.15 K, 4922 kPa | 1474.4 kg/m3
283.15 K, 4945 kPa | 1474.4 kg/m3
283.15 K, 5000 kPa | 1474.7 kg/m3
283.15 K, 5032 kPa | 1474.9 kg/m3
283.15 K, 5060 kPa | 1475.1 kg/m3
283.15 K, 5088 kPa | 1475.3 kg/m3
283.15 K, 5115 kPa | 1475.2 kg/m3
283.15 K, 5147 kPa | 1475.5 kg/m3
283.15 K, 5176 kPa | 1475.7 kg/m3
283.15 K, 5204 kPa | 1475.8 kg/m3
283.15 K, 5232 kPa | 1476 kg/m3
283.15 K, 5260 kPa | 1476.1 kg/m3
283.15 K, 5284 kPa | 1476.2 kg/m3
283.15 K, 5323 kPa | 1476.4 kg/m3
283.15 K, 5350 kPa | 1476.5 kg/m3
283.15 K, 5373 kPa | 1476.8 kg/m3
283.15 K, 5402 kPa | 1476.8 kg/m3
283.15 K, 5425 kPa | 1477 kg/m3
283.15 K, 5522 kPa | 1477.4 kg/m3
283.15 K, 5563 kPa | 1477.6 kg/m3
283.15 K, 5594 kPa | 1477.8 kg/m3
283.15 K, 5634 kPa | 1478 kg/m3
283.15 K, 5666 kPa | 1478.1 kg/m3
283.15 K, 6204 kPa | 1480.7 kg/m3
283.15 K, 6271 kPa | 1480.9 kg/m3
